# ± gives the standard deviation of the averaged measurements.
# Key:
# AFATINIB [1] = compound: T1, CN(C)C/C=C/C(=O)Nc1cc2c(Nc3ccc(F)c(Cl)c3)ncnc2cc1O[C@H]1CCOC1 [AFATINIB]; assay: area under dose-response curve of surviving fraction (unscaled, Aref=0) (surviving fraction x log10(nM)); higher = more resistant; conditions: exposure time: 5 days; dose range 0.5-1000 nM
# Summary of the method: (§1)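 Surviving fractions were fitted by 3-parameter logistic regression in the drc R package to give dose-response survival curves. They came from tumour cell lines treated for five days with eight inhibitor concentrations from 0.5 to 1000 nM and read by CellTiter-Glo luminescence against DMSO-only wells. The area under the curve is the unscaled activity area. It was calculated over log10 dose with Aref = 0.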
# SNX-5422 [2] = compound: T2, CC1(C)CC(=O)c2c(C(F)(F)F)nn(-c3ccc(C(N)=O)c(N[C@H]4CC[C@H](OC(=O)CN)CC4)c3)c2C1 [SNX-5422]; assay: as above; conditions: exposure time: 5 days; dose range 0.5-1000 nM
# Summary of the method: as §1
# MDV3100 [3] = compound: T3, CNC(=O)c1ccc(N2C(=S)N(c3ccc(C#N)c(C(F)(F)F)c3)C(=O)C2(C)C)cc1F [MDV3100]; assay: as above; conditions: exposure time: 5 days; dose range 0.5-1000 nM
# Summary of the method: as §1
# SAPACITABINE [4] = compound: T4, CCCCCCCCCCCCCCCC(=O)Nc1ccn([C@@H]2O[C@H](CO)[C@@H](O)[C@@H]2C#N)c(=O)n1 [SAPACITABINE]; assay: as above; conditions: exposure time: 5 days; dose range 0.5-1000 nM
# Summary of the method: as §1
# [5] = compound: Cn1cc(C2=Nc3cc(NC(=O)C(N)C4CCCCC4)cc4c3C2=CNNC4=O)cn1; assay: as above; conditions: exposure time: 5 days; dose range 0.5-1000 nM
# Summary of the method: as §1
# TIOGUANINE [6] = compound: T5, Nc1nc2[nH]cnc2c(=S)[nH]1 [TIOGUANINE]; assay: as above; conditions: exposure time: 5 days; dose range 0.5-1000 nM
# Summary of the method: as §1
# CANERTINIB [7] = compound: T6, C=CC(=O)Nc1cc2c(Nc3ccc(F)c(Cl)c3)ncnc2cc1OCCCN1CCOCC1 [CANERTINIB]; assay: as above; conditions: exposure time: 5 days; dose range 0.5-1000 nM
# Summary of the method: as §1
# BI-2536 [8] = compound: T7, CC[C@@H]1C(=O)N(C)c2cnc(Nc3ccc(C(=O)NC4CCN(C)CC4)cc3OC)nc2N1C1CCCC1 [BI-2536]; assay: as above; conditions: exposure time: 5 days; dose range 0.5-1000 nM
# Summary of the method: as §1
# AFATINIB [9] = compound: T1, AFATINIB; assay: surviving fraction relative to DMSO-only wells; higher = less growth inhibition; conditions: exposure time: 5 days
# Summary of the method: (§2)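 Tumour cell lines in log phase were plated in 384-well plates at 250–500 cells per well, then, after 24 hours, exposed continuously for five days to inhibitors at 0.5, 1, 5, 10, 50, 100, 500 and 1000 nM. Viability came from CellTiter-Glo luminescence, and surviving fraction is that signal normalised to the median of DMSO-only wells. Plates were read after 10 minutes at room temperature, and each line, screened three times, was kept only when replicate Pearson r was >0.7 and median Z' was >0.3.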
# SNX-5422 [10] = compound: T2, SNX-5422; assay: as above; conditions: exposure time: 5 days
# Summary of the method: as §2
# MDV3100 [11] = compound: T3, MDV3100; assay: as above; conditions: exposure time: 5 days
# Summary of the method: as §2
# SAPACITABINE [12] = compound: T4, SAPACITABINE; assay: as above; conditions: exposure time: 5 days
# Summary of the method: as §2
# [13] = compound: Cn1cc(C2=Nc3cc(NC(=O)C(N)C4CCCCC4)cc4c3C2=CNNC4=O)cn1; assay: as above; conditions: exposure time: 5 days
# Summary of the method: as §2
# TIOGUANINE [14] = compound: T5, TIOGUANINE; assay: as above; conditions: exposure time: 5 days
# Summary of the method: as §2
# CANERTINIB [15] = compound: T6, CANERTINIB; assay: as above; conditions: exposure time: 5 days
# Summary of the method: as §2
# BI-2536 [16] = compound: T7, BI-2536; assay: as above; conditions: exposure time: 5 days
# Summary of the method: as §2
test system,measurement,setting,value
HMLE3 BREAST,area under dose-response curve,AFATINIB [1],3.07
same,area under dose-response curve,SNX-5422 [2],1.89
same,area under dose-response curve,MDV3100 [3],3.23
same,area under dose-response curve,SAPACITABINE [4],2.03
same,area under dose-response curve,[5],2.79
same,area under dose-response curve,TIOGUANINE [6],3.06
same,area under dose-response curve,CANERTINIB [7],2.91
same,area under dose-response curve,BI-2536 [8],1.26
same,surviving fraction,AFATINIB [9]; 0.5 nM,0.989 ± 0.042
same,surviving fraction,AFATINIB [9]; 1 nM,1.02 ± 0.034
same,surviving fraction,AFATINIB [9]; 5 nM,0.993 ± 0.054
same,surviving fraction,AFATINIB [9]; 10 nM,0.904 ± 0.074
same,surviving fraction,AFATINIB [9]; 50 nM,0.905 ± 0.035
same,surviving fraction,AFATINIB [9]; 100 nM,0.946 ± 0.04
same,surviving fraction,AFATINIB [9]; 500 nM,0.842 ± 0.087
same,surviving fraction,AFATINIB [9]; 1000 nM,0.77 ± 0.021
same,surviving fraction,SNX-5422 [10]; 0.5 nM,0.975 ± 0.02
same,surviving fraction,SNX-5422 [10]; 1 nM,1 ± 0.054
same,surviving fraction,SNX-5422 [10]; 5 nM,0.999 ± 0.074
same,surviving fraction,SNX-5422 [10]; 10 nM,1.09 ± 0.032
same,surviving fraction,SNX-5422 [10]; 50 nM,0.0933 ± 0.011
same,surviving fraction,SNX-5422 [10]; 100 nM,0.0567 ± 0.0045
same,surviving fraction,SNX-5422 [10]; 500 nM,0.0233 ± 0.0015
same,surviving fraction,SNX-5422 [10]; 1000 nM,0.027 ± 0.001
same,surviving fraction,MDV3100 [11]; 0.5 nM,0.981 ± 0.05
same,surviving fraction,MDV3100 [11]; 1 nM,0.951 ± 0.018
same,surviving fraction,MDV3100 [11]; 5 nM,0.984 ± 0.026
same,surviving fraction,MDV3100 [11]; 10 nM,0.946 ± 0.049
same,surviving fraction,MDV3100 [11]; 50 nM,0.975 ± 0.12
same,surviving fraction,MDV3100 [11]; 100 nM,1 ± 0.09
same,surviving fraction,MDV3100 [11]; 500 nM,0.98 ± 0.058
same,surviving fraction,MDV3100 [11]; 1000 nM,1.03 ± 0.083
same,surviving fraction,SAPACITABINE [12]; 0.5 nM,0.846 ± 0.045
same,surviving fraction,SAPACITABINE [12]; 1 nM,0.738 ± 0.037
same,surviving fraction,SAPACITABINE [12]; 5 nM,0.898 ± 0.017
same,surviving fraction,SAPACITABINE [12]; 10 nM,0.244 ± 0.014
same,surviving fraction,SAPACITABINE [12]; 50 nM,0.892 ± 0.095
same,surviving fraction,SAPACITABINE [12]; 100 nM,0.67 ± 0.11
same,surviving fraction,SAPACITABINE [12]; 500 nM,0.344 ± 0.039
same,surviving fraction,SAPACITABINE [12]; 1000 nM,0.175 ± 0.0071
same,surviving fraction,[13]; 0.5 nM,1.02 ± 0.013
same,surviving fraction,[13]; 1 nM,0.984 ± 0.069
same,surviving fraction,[13]; 5 nM,1.01 ± 0.069
same,surviving fraction,[13]; 10 nM,1.05 ± 0.1
same,surviving fraction,[13]; 50 nM,0.928 ± 0.015
same,surviving fraction,[13]; 100 nM,0.924 ± 0.05
same,surviving fraction,[13]; 500 nM,0.319 ± 0.049
same,surviving fraction,[13]; 1000 nM,0.0807 ± 0.0095
same,surviving fraction,TIOGUANINE [14]; 0.5 nM,0.914 ± 0.068
same,surviving fraction,TIOGUANINE [14]; 1 nM,0.902 ± 0.015
same,surviving fraction,TIOGUANINE [14]; 5 nM,0.95 ± 0.028
same,surviving fraction,TIOGUANINE [14]; 10 nM,0.974 ± 0.019
same,surviving fraction,TIOGUANINE [14]; 50 nM,0.97 ± 0.1
same,surviving fraction,TIOGUANINE [14]; 100 nM,0.945 ± 0.072
same,surviving fraction,TIOGUANINE [14]; 500 nM,0.905 ± 0.049
same,surviving fraction,TIOGUANINE [14]; 1000 nM,0.851 ± 0.09
same,surviving fraction,CANERTINIB [15]; 0.5 nM,0.883 ± 0.0092
same,surviving fraction,CANERTINIB [15]; 1 nM,0.909 ± 0.082
same,surviving fraction,CANERTINIB [15]; 5 nM,0.891 ± 0.044
same,surviving fraction,CANERTINIB [15]; 10 nM,0.898 ± 0.018
same,surviving fraction,CANERTINIB [15]; 50 nM,0.913 ± 0.024
same,surviving fraction,CANERTINIB [15]; 100 nM,0.838 ± 0.14
same,surviving fraction,CANERTINIB [15]; 500 nM,0.847 ± 0.028
same,surviving fraction,CANERTINIB [15]; 1000 nM,0.872 ± 0.1
same,surviving fraction,BI-2536 [16]; 0.5 nM,1.04 ± 0.14
same,surviving fraction,BI-2536 [16]; 1 nM,1.09 ± 0.1
same,surviving fraction,BI-2536 [16]; 5 nM,0.819 ± 0.076
same,surviving fraction,BI-2536 [16]; 10 nM,0.216 ± 0.0056
same,surviving fraction,BI-2536 [16]; 50 nM,0.0467 ± 0.014
same,surviving fraction,BI-2536 [16]; 100 nM,0.0453 ± 0.015
same,surviving fraction,BI-2536 [16]; 500 nM,0.0567 ± 0.011
same,surviving fraction,BI-2536 [16]; 1000 nM,0.063 ± 0.007
